Source: patent US20220127576A1, “COMPOSITIONS AND METHODS FOR STEM CELL THERAPY” (Arizona Board of Regents on Behalf of the University of …, priority 2019, published 2022)
Entries after “also recorded” stand apart in the source; their conditions may differ.

Legend:
[1] = test system: lymphocytes, lymphocyte subtypes and CD34+ HSCs in whole blood; assay: Lymphocyte subtypes and CD34+ HSCs in whole blood at rest and during ISO infusion before and after G-CSF treatment; assay type: in vivo, human
Text: Values are the mean (n=7; 3 females).
This graft phenotype is predictive of improved clinical outcomes post alloHSCT, including lower incidence/severity of GvHD and viral infections, better engraftment and a lower incidence of relapse (Table 1).

[2] = test system: leukemia and multiple myeloma target cells; assay: In vitro anti-tumor (cytotoxic) activity of mobilized PBHC grafts; assay type: cell-based, human; conditions: compared to rest / G-CSF only
Text: Moreover, cytotoxic activity against leukemia and multiple myeloma target cells in vitro was 2-fold greater in the G-CSF+ISO PBHC grafts compared to G-CSF alone. […] Accordingly, in some embodiments, provided herein are compositions and methods for mobilizing stem cells with enhanced properties for use in allogenic or autologous transfers.
(§1) This was largely explained by a shift in the composition of NK-cells and TCR-γδ cells. […] The effects of systemic β-AR activation on the mobilization and ex vivo expansion of VSTs and TCR-γδ cells were β2-AR mediated as the effects were diminished by administering nadolol but not bisoprolol prior to systemic β-AR activation (FIG. 6).

[3] = Heart rate, blood pressure and tolerance during ISO infusion; assay type: in vivo, human; conditions: ISO 50 ng/kg/min, before and after 5-days G-CSF (5 mcg/kg/day); n=3
Text: Research Design: Scientific Rigor is maintained through the use of a randomized, complete cross-over, double blind placebo controlled experimental design (above table). This design allows participants to act as their own controls, thus minimizing variability and the impact of potential between-subject confounders. Healthy volunteers report to the lab on six separate occasions at the same time of day. During Visit 1, they undergo an extensive screening procedure to ensure that they meet the study inclusion/exclusion criteria. A blood sample is drawn to determine CMV serostatus (positive or negative) and MR haplotype (A or B), which is included as co-variates in the analysis. Participants then complete six trials on separate days (Visit 2-7) with 7-days interspersed between each trial. During each of these visits, subjects are infused with 50 ng/kg/min of ISO (5 visits) or saline (1 visit) for 30-minutes. Blood samples are drawn before and during the last 10-minutes of the 30-minute infusion protocol. Participants are given orally administered drugs or placebo as a single dose within a few hours prior to ISO infusion. Participants are assigned to trial order using a block randomization scheme with random block sizes of between 2 and 4 subjects to obtain a balanced sample of 8 subjects per trial sequence order (see Statistical Power and Analysis section below). The randomization list is used to create sealed envelopes that are opened to determine assignment to drug order group after visit 1, with the trial order blinded to both the investigators and the participants.

[4] = test system: lymphocytes, lymphocyte subtypes and CD34+ HSCs in whole blood; conditions: ISO dose of 50 ng/kg/min, healthy subjects, literature; cited from earlier work
[5] = test system: lymphocytes, lymphocyte subtypes and CD34+ HSCs in whole blood; assay: Lymphocyte subtypes and CD34+ HSCs in whole blood at rest and during ISO infusion before and after G-CSF treatment; assay type: in vivo, human; conditions: for Absolute number of B cells in whole blood / Absolute number of CD3+ T cells in whole blood / Absolute number of CD4+ T cells in whole blood / Absolute number of CD8+ T cells in whole blood / Absolute number of CD34+ HSCs in whole blood / Absolute number of CM CD4+ T cells in whole blood / Absolute number of CM CD8+ T cells in whole blood / Absolute number of EM CD4+ T cells in whole blood / Absolute number of EM CD8+ T cells in whole blood / Absolute number of EMRA CD4+ T cells in whole blood / Absolute number of EMRA CD8+ T cells in whole blood / Absolute number of NK cells in whole blood / Absolute number of Naïve CD4+ T cells in whole blood / Absolute number of Naïve CD8+ T cells in whole blood / Absolute number of lymphocytes (Lymph.) in whole blood / Absolute number of αβ T cells in whole blood / Absolute number of γδ T cells in whole blood: mean, n = 3
[6] = ISO dose of 50 ng/kg/min, literature; cited from earlier work
[7] = test system: lymphocyte composition in blood; assay: β-AR antagonists / PDE-4 inhibitor given prior to systemic β-AR activation (dynamic exercise): lymphocyte composition and heart rate; assay type: in vivo, human; conditions: antagonist administered prior to systemic β-AR activation (dynamic exercise model)
Protocol: Baseline samples were collected before drug/placebo administration and again 3 h later (pre-exercise).
To determine the β-AR subtype involved, a selective β1-AR antagonist (bisoprolol) and non-selective β1+β2-AR antagonist (nadolol) were administered prior to systemic β-AR activation (using dynamic exercise as an experimental model).

[8] = test system: VSTs specific to CMV, EBV and adenovirus antigens; assay: Mobilization of viral-specific T-cells (IFN-γ ELISpot and IFN-γ capture assays) with systemic β-AR activation; assay type: in vivo, human; conditions: healthy humans (n=11)
Text: Difference from the resting condition indicated by *, p<0.05. Difference from the placebo and bisoprolol trials indicated by #, p<0.05.

[9] = oral, literature; cited from earlier work
[10] = test system: VSTs and TCR-γδ cells; assay: Mobilization and ex vivo expansion of VSTs and TCR-γδ cells after systemic β-AR activation; assay type: cell-based, human; conditions: antagonist administered prior to systemic β-AR activation
Text: as §1

[11] = ISO infusion 50 ng/kg/min, before and after 5-days G-CSF (5 mcg/kg/day), n=7
[12] = after G-CSF mobilization, healthy volunteers
[13] = Post G-CSF, during ISO infusion

CC(C)NCC(O)c1ccc(O)c(O)c1 (centres unmarked) [ISO, isoproterenol]
composition of CD4+ TCR-αβ cells and B-cells among total blood lymphocytes [1, 11]: lowers | numbers of CD34 HSCs in peripheral blood / graft [1, 12]: increases; also recorded: without compromising | in vitro anti-tumor activity of G-CSF mobilized PBHC grafts [2]: increases | systolic hypertension [3]: ~30 mmHg | tachycardia [3]: ~50 bpm | tolerance to ISO infusion [3]: excellent tolerance | mobilization of lymphocytes to the circulation [4]: robust mobilization | composition of NK-cells and TCR-γδ cells among total blood lymphocytes [5, 11]: markedly increases | Absolute number of B cells in whole blood [5, 13]: 392 cells/ul | Absolute number of CD3+ T cells in whole blood [5, 13]: 2933 cells/ul | Absolute number of CD4+ T cells in whole blood [5, 13]: 1835 cells/ul | Absolute number of CD8+ T cells in whole blood [5, 13]: 795 cells/ul | Absolute number of CD34+ HSCs in whole blood [5, 13]: 92 cells/ul | Absolute number of CM CD4+ T cells in whole blood [5, 13]: 298 cells/ul | Absolute number of CM CD8+ T cells in whole blood [5, 13]: 41 cells/ul | Absolute number of EM CD4+ T cells in whole blood [5, 13]: 429 cells/ul | Absolute number of EM CD8+ T cells in whole blood [5, 13]: 342 cells/ul | Absolute number of EMRA CD4+ T cells in whole blood [5, 13]: 220 cells/ul | Absolute number of EMRA CD8+ T cells in whole blood [5, 13]: 184 cells/ul | Absolute number of NK cells in whole blood [5, 13]: 2068 cells/ul | Absolute number of Naïve CD4+ T cells in whole blood [5, 13]: 886 cells/ul | Absolute number of Naïve CD8+ T cells in whole blood [5, 13]: 227 cells/ul | Absolute number of lymphocytes (Lymph.) in whole blood [5, 13]: 6730 cells/ul | Absolute number of αβ T cells in whole blood [5, 13]: 2253 cells/ul | Absolute number of γδ T cells in whole blood [5, 13]: 214 cells/ul | Absolute number of B cells in whole blood ([5]; Pre G-CSF, during ISO infusion): 100 cells/ul | Absolute number of CD3+ T cells in whole blood ([5]; Pre G-CSF, during ISO infusion): 924 cells/ul | Absolute number of CD4+ T cells in whole blood ([5]; Pre G-CSF, during ISO infusion): 489 cells/ul | Absolute number of CD8+ T cells in whole blood ([5]; Pre G-CSF, during ISO infusion): 329 cells/ul | Absolute number of CD34+ HSCs in whole blood ([5]; Pre G-CSF, during ISO infusion): 6 cells/ul | Absolute number of CM CD4+ T cells in whole blood ([5]; Pre G-CSF, during ISO infusion): 137 cells/ul | Absolute number of CM CD8+ T cells in whole blood ([5]; Pre G-CSF, during ISO infusion): 34 cells/ul | Absolute number of EM CD4+ T cells in whole blood ([5]; Pre G-CSF, during ISO infusion): 80 cells/ul | Absolute number of EM CD8+ T cells in whole blood ([5]; Pre G-CSF, during ISO infusion): 114 cells/ul | Absolute number of EMRA CD4+ T cells in whole blood ([5]; Pre G-CSF, during ISO infusion): 13 cells/ul | Absolute number of EMRA CD8+ T cells in whole blood ([5]; Pre G-CSF, during ISO infusion): 81 cells/ul | Absolute number of NK cells in whole blood ([5]; Pre G-CSF, during ISO infusion): 778 cells/ul | Absolute number of Naïve CD4+ T cells in whole blood ([5]; Pre G-CSF, during ISO infusion): 257 cells/ul | Absolute number of Naïve CD8+ T cells in whole blood ([5]; Pre G-CSF, during ISO infusion): 99 cells/ul | Absolute number of lymphocytes (Lymph.) in whole blood ([5]; Pre G-CSF, during ISO infusion): 2043 cells/ul | Absolute number of αβ T cells in whole blood ([5]; Pre G-CSF, during ISO infusion): 830 cells/ul | Absolute number of γδ T cells in whole blood ([5]; Pre G-CSF, during ISO infusion): 91 cells/ul | ratio of 'favorable' to 'unfavorable' lymphocyte subtypes in peripheral blood [5, 12]: alters | safety for infusing healthy subjects [6]: safe

CC(C)NCC(O)COc1ccc(COCCOC(C)C)cc1 (centres unmarked) [bisoprolol]
effects of systemic β-AR activation on graft composition shifts [7]: remained favorably altered | effects of systemic β-AR activation on the mobilization of VSTs [8]: not | half-life [9]: 10 to 12 h

COc1ccccc1OCCNCC(O)COc1cccc2[nH]c3ccccc3c12 (centres unmarked) [carvedilol]
half-life [9]: 7 to 10 h

CC(C)(C)NCC(O)COc1cccc2c1CC(O)C(O)C2 (centres unmarked) [nadolol]
effects of systemic β-AR activation on graft composition shifts [7]: not | effects of systemic β-AR activation on graft composition shifts ([7]; listed as Nadolol): abrogated | effects of systemic β-AR activation on the mobilization of VSTs [8]: inhibits; also recorded: blocked | effects of systemic β-AR activation on the mobilization and ex vivo expansion of VSTs and TCR-γδ cells [10]: diminished | half-life [9]: 14 to 24 h

O=C(Nc1c(Cl)cncc1Cl)c1ccc(OC(F)F)c(OCC2CC2)c1 [roflumilast]
half-life [9]: 15 to 18 h

B1: G-CSF: stem cell mobilization agent; filgrastim (G-CSF), 5 mcg/kg/day for 5 days (protein, chains of the INN, looked up)
chain: MTPLGPASSLPQSFLLKCLEQVRKIQGDGAALQEKLCATYKLCHPEELVLLGHSLGIPWAPLSSCPSQALQLAGCLSQLHSGLFLYQGLLQALEGISPELGPTLDTLQLDVADFATTIWQQMEELGMAPALQPTQGAMPAFASAFQRRAGGVLVASHLQSFLEVSYRVLRHLAQP
Absolute number of B cells in whole blood ([5]; Post G-CSF, Rest): 456 cells/ul | Absolute number of CD3+ T cells in whole blood ([5]; Post G-CSF, Rest): 2755 cells/ul | Absolute number of CD4+ T cells in whole blood ([5]; Post G-CSF, Rest): 1749 cells/ul | Absolute number of CD8+ T cells in whole blood ([5]; Post G-CSF, Rest): 786 cells/ul | Absolute number of CD34+ HSCs in whole blood ([5]; Post G-CSF, Rest): 110 cells/ul | Absolute number of CM CD4+ T cells in whole blood ([5]; Post G-CSF, Rest): 268 cells/ul | Absolute number of CM CD8+ T cells in whole blood ([5]; Post G-CSF, Rest): 47 cells/ul | Absolute number of EM CD4+ T cells in whole blood ([5]; Post G-CSF, Rest): 405 cells/ul | Absolute number of EM CD8+ T cells in whole blood ([5]; Post G-CSF, Rest): 284 cells/ul | Absolute number of EMRA CD4+ T cells in whole blood ([5]; Post G-CSF, Rest): 216 cells/ul | Absolute number of EMRA CD8+ T cells in whole blood ([5]; Post G-CSF, Rest): 154 cells/ul | Absolute number of NK cells in whole blood ([5]; Post G-CSF, Rest): 1158 cells/ul | Absolute number of Naïve CD4+ T cells in whole blood ([5]; Post G-CSF, Rest): 860 cells/ul | Absolute number of Naïve CD8+ T cells in whole blood ([5]; Post G-CSF, Rest): 302 cells/ul | Absolute number of lymphocytes (Lymph.) in whole blood ([5]; Post G-CSF, Rest): 5866 cells/ul | Absolute number of αβ T cells in whole blood ([5]; Post G-CSF, Rest): 2661 cells/ul | Absolute number of γδ T cells in whole blood ([5]; Post G-CSF, Rest): 93 cells/ul
